One assay deals with T1, PARP (Homo sapiens, UniProt P09874).
T1 construct: purchased Trevigen 4684-096-01 (enzyme); kit 4684-096-K HT
As to the kind of experiment: PARP ELISA (ELISA-based colorimetric PARP/Apoptosis Assay kit), inhibition of PARP catalytic activity. The class given is biochemical. Conditions: pIC50 = -log10 IC50 (molar); 0.1 nM PARP stock, 100 μM NAD+ stock with activated DNA, 10 min catalysis. How it is done: Inhibition Constant (IC50) from PARP ELISA
Inhibition of PARP catalytic activity was determined by use of an ELISA-based colorimetric PARP/Apoptosis Assay kit (part number 4684-096-K HT, Trevigen). To each histone coated well in the 96-well plate supplied by the manufacturer (part number 4677-096-P) is added 39 μL of PARP buffer (part number 4671-096-02) and 1 μL of test compound dissolved in DMSO (diluted serially 3-fold 11 times). After mixing, 5 μL of 0.1 nM PARP (part number 4684-096-01) is added and the solution allowed to stand at ambient temperature for 10 minutes. PARP catalysis is initiated with the addition of 5 μL of 100 μM β-nicotinamide adenine dinucleotide (NAD+) (part number 4684-096-02) with activated DNA (part number 4671-096-06). After 10 minutes of catalysis the reaction is quenched by solvent aspiration followed by irrigation of the assay wells 4 times with phosphate buffered saline (PBS) containing 0.1% t-octylphenoxypolyethoxyethanol (Triton® X-100). Mouse Anti-poly ADP ribose (PAR) monoclonal antibody, goat antimouse immunoglobulin G (IgG)-horse radish peroxidase (HRP) conjugate and HRP substrate are added according to the manufacture's specifications to generate a colorimetric signal proportional to PARP catalytic activity. An IC50 for the test compound is calculated from the equation Absorbance=(Amax−background)/(1+([cmpd]/IC50)^n)+background fit to the 12 point test compound concentration gradient via nonlinear least squares.
(§1) Here, pIC50=−log10 IC50, where IC50 is the molar concentration of the compound at 50% inhibition.
(In general: An ELISA detects its analyte on a solid surface through an enzyme-linked reagent.)

For another assay, the system named is Jurkat cell line. As to the kind of experiment: PARP cellular chemopotentiation assay (MTS viability, with and without Temozolomide). The class given is cell-based. To be noted: Chemopotentiation factor: ratio of EC50 for cell viability without and with 100 μM TMZ, Jurkat cells, 96 hours of treatment. On the procedure:
Potentiation Factor (PF50) Determination from PARP Cellular Chemopotentiation Assay
Jurkat cell line was maintained according to the supplier (American Type Culture Collection (Rockville, Md.)). Cells were seeded in 96-well tissue culture microplates at 10,000 cells per well and cultured for 24 hours prior to addition of compounds, TMZ (Temozolomide) or DMSO (dimethylsulfoxide) vehicle. After 96 hours of treatment, the conversion of MTS ([3-(4,5-dimethylthiazol-2-yl)-5-(3-carboxymethoxyphenyl)-2-(4-sulfophenyl)-2H-tetrazolium, inner salt], Promega, Madison, Wis.) by metabolically active cells was determined through measuring the OD490 nm with a Spectramax microplate reader (Molecular Devices, San Diego, Calif.). To generate concentration-response curves, cells were treated in duplicate with a range of serial compound dilutions (final DMSO concentration was 0.5%) in the absence or presence of 100 μM TMZ chemoreagent. The percentage of viable cells per well was calculated by correction for background and normalizing against DMSO-treated cells. EC50 values for inhibition of cell viability were calculated using XLfit4 MicroSoft Excel curve-fitting software. Chemopotentiation factor PF50 was calculated as the ratio of EC50 values of cells co-treated without and with TMZ, respectively.
as §1

For orientation: IC50 means the point on the concentration scale where inhibition reaches its midpoint. High values mean weaker potency, low ones greater potency.

T1 sequence (P09874 whole entry): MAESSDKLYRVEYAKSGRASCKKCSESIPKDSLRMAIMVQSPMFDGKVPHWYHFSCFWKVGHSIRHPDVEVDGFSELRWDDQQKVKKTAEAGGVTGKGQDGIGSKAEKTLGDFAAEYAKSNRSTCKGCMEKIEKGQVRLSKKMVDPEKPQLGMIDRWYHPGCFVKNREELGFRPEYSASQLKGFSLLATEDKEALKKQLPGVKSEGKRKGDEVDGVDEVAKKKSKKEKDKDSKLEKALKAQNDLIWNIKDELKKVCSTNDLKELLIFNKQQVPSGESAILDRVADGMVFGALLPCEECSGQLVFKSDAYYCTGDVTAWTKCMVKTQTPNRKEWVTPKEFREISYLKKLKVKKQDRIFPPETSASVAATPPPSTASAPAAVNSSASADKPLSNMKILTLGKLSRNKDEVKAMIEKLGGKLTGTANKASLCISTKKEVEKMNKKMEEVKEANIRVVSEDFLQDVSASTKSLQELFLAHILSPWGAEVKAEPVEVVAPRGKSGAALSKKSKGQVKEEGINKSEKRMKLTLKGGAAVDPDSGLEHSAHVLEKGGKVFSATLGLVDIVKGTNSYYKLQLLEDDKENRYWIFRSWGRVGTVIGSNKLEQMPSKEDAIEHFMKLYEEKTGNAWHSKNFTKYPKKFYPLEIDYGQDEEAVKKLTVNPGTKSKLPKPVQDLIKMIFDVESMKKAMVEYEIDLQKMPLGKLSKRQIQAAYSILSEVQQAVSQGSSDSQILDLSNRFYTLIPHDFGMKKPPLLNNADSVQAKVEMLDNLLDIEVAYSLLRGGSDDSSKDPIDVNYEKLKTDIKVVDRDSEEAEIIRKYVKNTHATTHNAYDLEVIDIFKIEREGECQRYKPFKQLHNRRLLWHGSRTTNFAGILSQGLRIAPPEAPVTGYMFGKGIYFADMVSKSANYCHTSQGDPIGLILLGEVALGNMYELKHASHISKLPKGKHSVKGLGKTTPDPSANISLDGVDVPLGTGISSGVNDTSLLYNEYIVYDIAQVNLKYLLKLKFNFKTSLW

Turning to `CCNC(=O)c1ccc(N2CCN(Cc3cnc4c(c3)[nH]c(=O)n3cccc43)CC2)cc1` [Example 2, N-ethyl-4-(4-((6-oxo-5,6-dihydropyrido[2,3-e]pyrrolo[1,2-c]pyrimidin-3-yl)methyl)piperazin-1-yl)benzamide], the IC50 at PARP is no more than 0.01 µM. Also, the PF50 in the assay on Jurkat cell line is greater than 1000.

On PARP, `CNC(=O)c1ccc(N2CCN(Cc3cnc4c(c3)[nH]c(=O)n3cccc43)CC2)c(Cl)c1` [Example 5, 3-chloro-N-methyl-4-(4-((6-oxo-5,6-dihydropyrido[2,3-e]pyrrolo[1,2-c]pyrimidin-3-yl)methyl)piperazin-1-yl)benzamide] showed an IC50 of no more than 0.01 µM. The PF50 in the assay with Jurkat cell line was greater than 63.

With `CCNC(=O)c1ccc(N2CCN(Cc3cnc4c(c3)[nH]c(=O)n3cccc43)CC2)c(F)c1` [Example 10, N-ethyl-3-fluoro-4-(4-((6-oxo-5,6-dihydropyrido[2,3-e]pyrrolo[1,2-c]pyrimidin-3-yl)methyl)piperazin-1-yl)benzamide], the IC50 against PARP is no more than 0.01 µM. Moreover, the PF50 with Jurkat cell line is recorded as greater than 60.

Turning to `CCNC(=O)c1ccc(N2CCN(Cc3cnc4c(c3)[nH]c(=O)n3cccc43)CC2)c(Cl)c1` [Example 6, 3-chloro-N-ethyl-4-(4-((6-oxo-5,6-dihydropyrido[2,3-e]pyrrolo[1,2-c]pyrimidin-3-yl)methyl)piperazin-1-yl)benzamide], the IC50 at PARP is no more than 0.01 µM. In addition, the PF50 with Jurkat cell line is reported as greater than 1000.

Molecule `O=C(NC1CC1)c1ccc(N2CCN(Cc3cnc4c(c3)[nH]c(=O)n3cccc43)CC2)cc1` [Example 4, N-cyclopropyl-4-(4-((6-oxo-5,6-dihydropyrido[2,3-e]pyrrolo[1,2-c]pyrimidin-3-yl)methyl)piperazin-1-yl)benzamide] gave an IC50 against PARP of no more than 0.01 µM. In addition, the PF50 in the assay on Jurkat cell line is recorded as greater than 1000.

As to `CNC(=O)c1ccc(N2CCN(Cc3cnc4c(c3)[nH]c(=O)n3cccc43)CC2)cc1` [Example 3, N-methyl-4-(4-((6-oxo-5,6-dihydropyrido[2,3-e]pyrrolo[1,2-c]pyrimidin-3-yl)methyl)piperazin-1-yl)benzamide], the IC50 against PARP is no more than 0.01 µM. In addition, the PF50 in the assay with Jurkat cell line is listed as greater than 24000.

For `CNC(=O)c1ccc(N2CCN(Cc3cnc4c(c3)[nH]c(=O)n3cccc43)CC2)c(C)c1` [Example 7, N,3-dimethyl-4-(4-((6-oxo-5,6-dihydropyrido[2,3-e]pyrrolo[1,2-c]pyrimidin-3-yl)methyl)piperazin-1-yl)benzamide], the IC50 against PARP is no more than 0.01 µM. Besides, the PF50 with Jurkat cell line is on record as greater than 900.

Turning to `CNC(=O)c1ccc(N2CCN(Cc3cnc4c(c3)[nH]c(=O)n3cccc43)CC2)c(F)c1` [Example 9, 3-fluoro-N-methyl-4-(4-((6-oxo-5,6-dihydropyrido[2,3-e]pyrrolo[1,2-c]pyrimidin-3-yl)methyl)piperazin-1-yl)benzamide], on PARP, the 50% inhibitory concentration (IC50) was no more than 0.01 µM. For the same molecule, the PF50 with Jurkat cell line is given as greater than 16.

In turn, `CCNC(=O)c1ccc(N2CCN(Cc3cnc4c(c3)[nH]c(=O)n3cccc43)CC2)c(C)c1` [Example 8, N-ethyl-3-methyl-4-(4-((6-oxo-5,6-dihydropyrido[2,3-e]pyrrolo[1,2-c]pyrimidin-3-yl)methyl)piperazin-1-yl)benzamide] had an IC50 at PARP of no more than 0.01 µM. The PF50 in the assay on Jurkat cell line was greater than 1600.

The values are drawn from patent publication US8980902B2, “Poly (ADP-ribose) polymerase (PARP) inhibitors” (Takeda Pharmaceutical Company Limited, priority 2009, dated 2015).
